# Target: T1, IC-GPCR2 (Homo sapiens, UniProt Q8TDV5)
# T1 construct: expressed in transfected cells
# T1 sequence (Q8TDV5 1-335 S309L): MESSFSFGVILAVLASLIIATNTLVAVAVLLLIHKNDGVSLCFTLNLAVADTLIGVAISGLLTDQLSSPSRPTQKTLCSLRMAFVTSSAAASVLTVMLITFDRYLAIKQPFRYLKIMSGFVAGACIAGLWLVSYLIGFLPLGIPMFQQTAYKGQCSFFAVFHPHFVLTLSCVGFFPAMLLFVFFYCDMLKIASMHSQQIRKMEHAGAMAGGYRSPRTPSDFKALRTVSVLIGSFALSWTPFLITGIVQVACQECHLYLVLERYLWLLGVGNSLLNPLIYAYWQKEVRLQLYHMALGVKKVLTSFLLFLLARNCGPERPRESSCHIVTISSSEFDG
# Assay: Stimulation of cAMP in CHO cell line stably expressing IC-GPCR2 (HTRF cAMP dynamic kit)
# Type: cell-based
# Conditions: 3 μM compound; relative to maximal activity of 5-Ethyl-2-{4-[4-(4-tetrazol-1-yl-phenoxymethyl)-thiazol-2-yl]-piperidin-1-yl}-pyrimidine (=100%); IC-GPCR2 stably expressing CHO cells, 30 minutes
# In short: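 CHO cells stably expressing IC-GPCR2, with parental CHO as counter-screen, were exposed to compound (0.00003–10 μM) for 30 min in Ham's F12. Intracellular cAMP read by HTRF competitive immunoassay (665/620 nm ratio). Activity at 3 μM expressed as % of maximal signal from a reference agonist.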
row,Compound,% activity at 3 μM
1,"FC(F)(F)c1ccc(N2CCC(n3ncc(COc4ccc(-n5cnnn5)nc4)n3)CC2)nc1 [Example 82, 2-(4-(4-((6-(1H-tetrazol-1-yl)pyridin-3-yloxy)methyl)-2H-1,2,3-triazol-2-yl)piperidin-1-yl)-5-(trifluoromethyl)pyridine]",64.90%
2,"CC1CN(C(=O)OC(C)(C)C)CCC1n1ncc(COc2ccc(-n3cnnn3)nc2)n1 (stereo not drawn) [Example 83, tert-Butyl 4-(4-((6-(1H-tetrazol-1-yl)pyridin-3-yloxy)methyl)-2H-1,2,3-triazol-2-yl)-3-methylpiperidine-1-carboxylate]",63.14%
3,"CC1CN(c2ncc(C(F)(F)F)cn2)CCC1n1ncc(COc2ccc(-n3cnnn3)nc2)n1 (stereo not drawn) [Example 84, 2-(4-(4-((6-(1H-Tetrazol-1-yl)pyridin-3-yloxy)methyl)-2H-1,2,3-triazol-2-yl)-3-methylpiperidin-1-yl)-5-(trifluoromethyl)pyrimidine]",78.05%
4,"CCc1cnc(N2CCC(n3ncc(COc4ccc(-n5cnnn5)nc4)n3)C(C)C2)nc1 (stereo not drawn) [Example 85, 2-(4-(4-((6-(1H-Tetrazol-1-yl)pyridin-3-yloxy)methyl)-2H-1,2,3-triazol-2-yl)-3-methylpiperidin-1-yl)-5-ethylpyrimidine]",76.12%
5,"Cc1cnc(N2CCC(n3ncc(COc4ccc(-n5cnnn5)nc4)n3)C(C)C2)nc1 (stereo not drawn) [Example 86, 2-(4-(4-((6-(1H-Tetrazol-1-yl)pyridin-3-yloxy)methyl)-2H-1,2,3-triazol-2-yl)-3-methylpiperidin-1-yl)-5-methylpyrimidine]",71.39%
6,"CC1CN(c2ncc(Cl)cn2)CCC1n1ncc(COc2ccc(-n3cnnn3)nc2)n1 (stereo not drawn) [Example 87, 2-(4-(4-((6-(1H-Tetrazol-1-yl)pyridin-3-yloxy)methyl)-2H-1,2,3-triazol-2-yl)-3-methylpiperidin-1-yl)-5-chloropyrimidine]",75.63%
7,"Clc1cnc(N2CCC(n3ncc(COc4ccc(-n5cnnn5)cc4)n3)CC2)nc1 [Example 88, 2-(4-(4-((4-(1H-Tetrazol-1-yl)phenoxy)methyl)-2H-1,2,3-triazol-2-yl)piperidin-1-yl)-5-chloropyrimidine]",60.96%
8,"Cc1cc(-n2cnnn2)ccc1OCc1cnn(C2CCN(c3ncc(Cl)cn3)CC2)n1 [Example 89, 5-chloro-2-(4-(4-((2-Methyl-4-(1H-tetrazol-1-yl)phenoxy)methyl)-2H-1,2,3-triazol-2-yl)piperidin-1-yl)pyrimidine]",48.60%
9,"Cc1sc(OCc2cnn(C3CCN(c4ncc(Cl)cn4)CC3)n2)nc1-c1cccnc1 [Example 90, 2-((2-(1-(5-Chloropyrimidin-2-yl)piperidin-4-yl)-2H-1,2,3-triazol-4-yl)methoxy)-5-methyl-4-(pyridin-3-yl)thiazole]",13.60%
10,"Cc1sc(OCc2cnn(C3CCN(c4ncc(Cl)cn4)CC3)n2)nc1-c1ccncc1 [Example 91, 2-((2-(1-(5-Chloropyrimidin-2-yl)piperidin-4-yl)-2H-1,2,3-triazol-4-yl)methoxy)-5-methyl-4-(pyridin-4-yl)thiazole]",5.82%
11,"Clc1cnc(N2CCC(n3ncc(COc4ccc(-n5ccnn5)cc4)n3)CC2)nc1 [Example 92, 2-(4-(4-((4-(1H-1,2,3-Triazol-1-yl)phenoxy)methyl)-2H-1,2,3-triazol-2-yl)piperidin-1-yl)-5-chloropyrimidine]",58.28%
12,"Clc1cnc(N2CCC(n3ncc(COc4ccc(-n5cncn5)cc4)n3)CC2)nc1 [Example 93, 2-(4-(4-((4-(1H-1,2,4-Triazol-1-yl)phenoxy)methyl)-2H-1,2,3-triazol-2-yl)piperidin-1-yl)-5-chloropyrimidine]",50.84%
13,"Clc1cnc(N2CCC(n3ncc(COc4ccc(-n5ccnc5)cc4)n3)CC2)nc1 [Example 94, 2-(4-(4-((4-(1H-Imidazol-1-yl)phenoxy)methyl)-2H-1,2,3-triazol-2-yl)piperidin-1-yl)-5-chloropyrimidine]",49.73%

# Results, then the molecule that gave them:
row,% activity at 3 μM,Compound
1,51.03%,"CS(=O)(=O)c1ccc(OCc2cnn(C3CCN(c4ncc(Cl)cn4)CC3)n2)cc1 [Example 95, 5-Chloro-2-(4-(4-((4-(Methylsulfonyl)phenoxy)methyl)-2H-1,2,3-triazol-2-yl)piperidin-1-yl)pyrimidine]"
2,28.90%,"Clc1cnc(N2CCC(n3ncc(COc4ccccc4-c4nnco4)n3)CC2)nc1 [Example 96, 5-Chloro-2-{4-[4-(2-[1,3,4]oxadiazol-2-yl-phenoxymethyl)-[1,2,3]triazol-2-yl]-piperidin-1-yl}-pyrimidine]"
3,17.16%,"Clc1cnc(N2CCC(n3ncc(COc4ccc(Cl)nc4)n3)CC2)nc1 [Example 98, 5-Chloro-2-{4-[4-(6-chloro-pyridin-3-yloxymethyl)-[1,2,3]triazol-2-yl]-piperidin-1-yl}-pyrimidine]"
4,56.81%,"O=C1CCCN1c1ccc(OCc2cnn(C3CCN(c4ncc(C(F)(F)F)cn4)CC3)n2)cc1 [Example 99, 1-(4-{2-[1-(5-Trifluoromethyl-pyrimidin-2-yl)-piperidin-4-yl]-2H-[1,2,3]triazol-4-ylmethoxy}-phenyl)-pyrrolidin-2-one]"
5,10.69%,"FC(F)(F)c1cnc(N2CCC(n3ncc(COCc4ccccc4)n3)CC2)nc1 [Example 100, 2-[4-(4-benzyloxymethyl-[1,2,3]triazol-2-yl)-piperidin-1-yl]-5-trifluoromethyl-pyrimidine]"
6,50.67%,"CC(C)COC(=O)N1CCC(n2ncc(COc3ccc(-n4cnnn4)cc3F)n2)CC1 [Example 101, Isobutyl 4-(4-((2-fluoro-4-(1H-tetrazol-1-yl)phenoxy)methyl)-2H-1,2,3-triazol-2-yl)piperidine-1-carboxylate]"
7,38.98%,"O=C(OCc1ccccc1)N1CCC(n2ncc(COc3ccc(-n4cnnn4)cc3F)n2)CC1 [Example 102, Benzyl 4-(4-((2-fluoro-4-(1H-tetrazol-1-yl)phenoxy)methyl)-2H-1,2,3-triazol-2-yl)piperidine-1-carboxylate]"
8,51.30%,"CC(C)COC(=O)N1CCC(n2ncc(COc3ccc(S(C)(=O)=O)cc3F)n2)CC1 [Example 103, Isobutyl 4-(4-((2-fluoro-4-(methylsulfonyl)phenoxy)methyl)-2H-1,2,3-triazol-2-yl)piperidine-1-carboxylate]"
9,28.40%,"CS(=O)(=O)c1ccc(OCc2cnn(C3CCN(C(=O)OCc4ccccc4)CC3)n2)c(F)c1 [Example 104, Benzyl 4-(4-((2-fluoro-4-(methylsulfonyl)phenoxy)methyl)-2H-1,2,3-triazol-2-yl)piperidine-1-carboxylate]"
10,10.65%,"CCOC(=O)c1cnc(N2CCC(n3ncc(COc4ccc(S(C)(=O)=O)cc4F)n3)CC2)nc1 [Example 105, Ethyl 2-(4-(4-((2-fluoro-4-(methylsulfonyl)phenoxy)methyl)-2H-1,2,3-triazol-2-yl)piperidin-1-yl)pyrimidine-5-carboxylate]"
11,11.46%,"CCOC(=O)c1cnc(N2CCC(n3ncc(COc4ccc(-n5cnnn5)cc4F)n3)CC2)nc1 [Example 106, Ethyl 2-(4-(4-((2-fluoro-4-(1H-tetrazol-1-yl)phenoxy)methyl)-2H-1,2,3-triazol-2-yl)piperidin-1-yl)pyrimidine-5-carboxylate]"
12,36.83%,"CS(=O)(=O)c1ccc(OCc2cnn(C3CCN(c4ncc(F)cn4)CC3)n2)c(F)c1 [Example 107, 5-Fluoro-2-(4-(4-((2-fluoro-4-(methylsulfonyl)phenoxy)methyl)-2H-1,2,3-triazol-2-yl)piperidin-1-yl)pyrimidine]"
13,41.78%,"O=C(c1ccccn1)N1CCC(n2ncc(COc3ccc(-n4cnnn4)cc3F)n2)CC1 [Example 108, (4-(4-((2-Fluoro-4-(1H-tetrazol-1-yl)phenoxy)methyl)-2H-1,2,3-triazol-2-yl)piperidin-1-yl)(pyridin-2-yl)methanone]"
14,7.45%,"O=C(c1cccc(O)n1)N1CCC(n2ncc(COc3ccc(-n4cnnn4)cc3F)n2)CC1 [Example 109, (4-(4-((2-Fluoro-4-(1H-tetrazol-1-yl)phenoxy)methyl)-2H-1,2,3-triazol-2-yl)piperidin-1-yl)(6-hydroxypyridin-2-yl)methanone]"
15,1.30%,"O=C(c1ncccc1O)N1CCC(n2ncc(COc3ccc(-n4cnnn4)cc3F)n2)CC1 [Example 110, (4-(4-((2-Fluoro-4-(1H-tetrazol-1-yl)phenoxy)methyl)-2H-1,2,3-triazol-2-yl)piperidin-1-yl)(3-hydroxypyridin-2-yl)methanone]"
16,24.12%,"Cc1cccnc1C(=O)N1CCC(n2ncc(COc3ccc(-n4cnnn4)cc3F)n2)CC1 [Example 111, (4-(4-((2-Fluoro-4-(1H-tetrazol-1-yl)phenoxy)methyl)-2H-1,2,3-triazol-2-yl)piperidin-1-yl)(3-methylpyridin-2-yl)methanone]"
17,42.30%,"O=C(c1cccnc1)N1CCC(n2ncc(COc3ccc(-n4cnnn4)cc3F)n2)CC1 [Example 112, (4-(4-((2-Fluoro-4-(1H-tetrazol-1-yl)phenoxy)methyl)-2H-1,2,3-triazol-2-yl)piperidin-1-yl)(pyridin-3-yl)methanone]"

# Reference: patent publication US8846675B2, “N-linked heterocyclic receptor agonists for the treatment of diabetes and metabolic disorders” (Cymabay Therapeutics, Inc., priority 2007, dated 2014)
